{
  "source": "the supplement of paper PMC10307832",
  "assay_in_all_cases": "relative viability (nuclei count vs DMSO), 5 days (fraction); higher = more cells survive",
  "key": {"[1]": {"compound": "CC1=CC(=NN1)NC2=CC(=NC(=N2)/C=C/C3=CC=CC=C3)N4CCN(CC4)C + Nc1ncn([C@H]2C[C@H](O)[C@@H](CO)O2)c(=O)n1 [Decitabine] (partner 2 µM)", "in_short": "(§1)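 Relative viability equals treated-well nuclei counts divided by vehicle-well nuclei counts. Counts came from 4× images of lung cancer cell lines grown in 1536-well plates for 5 days after pin-tool dosing on the day after seeding. Dosing used one drug alone or a fixed anchor-drug dose plus five library-drug doses (not always all listed) in √10 steps, and values are medians of duplicate plates.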"}, "Obatoclax + Crizotinib": {"compound": "COC1=CC(c2cc3ccccc3[nH]2)=N/C1=C\\c1[nH]c(C)cc1C [Obatoclax] + C[C@@H](Oc1cc(-c2cnn(C3CCNCC3)c2)cnc1N)c1c(Cl)ccc(F)c1Cl [Crizotinib] (partner 1 µM)", "in_short": "as §1"}, "Obatoclax + Trametinib": {"compound": "COC1=CC(c2cc3ccccc3[nH]2)=N/C1=C\\c1[nH]c(C)cc1C [Obatoclax] + CC(=O)Nc1cccc(-n2c(=O)n(C3CC3)c(=O)c3c(Nc4ccc(I)cc4F)n(C)c(=O)c(C)c32)c1 [Trametinib] (partner 0.02 µM)", "in_short": "as §1"}, "Bortezomib + AZD7762": {"compound": "CC(C)C[C@H](NC(=O)[C@H](Cc1ccccc1)NC(=O)c1cnccn1)B(O)O [Bortezomib] + NC(=O)Nc1cc(-c2cccc(F)c2)sc1C(=O)N[C@H]1CCCNC1 [AZD7762] (partner 0.2 µM)", "in_short": "as §1"}},
  "data": [
    {"cell line": "NCI-H650", "values": [
      {"measurement": "relative viability", "setting": "[1]; first compound 0.08 µM", "value": 0.314},
      {"measurement": "relative viability", "setting": "[1]; first compound 0.253 µM", "value": 0.318},
      {"measurement": "relative viability", "setting": "[1]; first compound 0.8 µM", "value": 0.287},
      {"measurement": "relative viability", "setting": "[1]; first compound 2.53 µM", "value": 0.246},
      {"measurement": "relative viability", "setting": "[1]; first compound 8 µM", "value": 0.157},
      {"measurement": "relative viability", "setting": "Obatoclax + Crizotinib; first compound 0.01 µM", "value": 0.717},
      {"measurement": "relative viability", "setting": "Obatoclax + Crizotinib; first compound 0.03162 µM", "value": 0.668},
      {"measurement": "relative viability", "setting": "Obatoclax + Crizotinib; first compound 0.1 µM", "value": 0.561},
      {"measurement": "relative viability", "setting": "Obatoclax + Crizotinib; first compound 0.3162 µM", "value": 0.498},
      {"measurement": "relative viability", "setting": "Obatoclax + Crizotinib; first compound 1 µM", "value": 0.323},
      {"measurement": "relative viability", "setting": "Obatoclax + Trametinib; first compound 0.01 µM", "value": 0.888},
      {"measurement": "relative viability", "setting": "Obatoclax + Trametinib; first compound 0.03162 µM", "value": 1.02},
      {"measurement": "relative viability", "setting": "Obatoclax + Trametinib; first compound 0.3162 µM", "value": 0.373},
      {"measurement": "relative viability", "setting": "Obatoclax + Trametinib; first compound 1 µM", "value": 0.625},
      {"measurement": "relative viability", "setting": "Bortezomib + AZD7762; first compound 0.0002 µM", "value": 0.949},
      {"measurement": "relative viability", "setting": "Bortezomib + AZD7762; first compound 0.000632 µM", "value": 1.08},
      {"measurement": "relative viability", "setting": "Bortezomib + AZD7762; first compound 0.002 µM", "value": 0.95},
      {"measurement": "relative viability", "setting": "Bortezomib + AZD7762; first compound 0.006325 µM", "value": 0.942},
      {"measurement": "relative viability", "setting": "Bortezomib + AZD7762; first compound 0.02 µM", "value": 0.289}
    ]}
  ]
}
